Measurements published in PubChem BioAssay AID252 (DTP/NCI, 2004).
Several values for one entry are separate records, joined by “and”; a condition that tells them apart may be missing. Equal values may be shown once. Toxic doses and inconclusive results are not listed.

Tested on: BDF1 mice, intracerebral L1210 leukemia, survival T/C
Assay: NCI In Vivo Anticancer Drug Screen. Data for tumor model L1210 Leukemia (intracerebral) in B6D2F1 (BDF1) mice
Conditions: higher = longer survival
Summary of the method: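 Antitumour effect is judged in mice with transplanted tumour by comparing survival of treated (T) against vehicle-dosed (C) groups as T/C.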

Q: Which results are given for O=P1(N(CCCl)CCCl)NCCCO1 (stereo not given)?
A: T/C (endpoint: mean survival time, dose: 17.5 mg/kg/injection, schedule: Q01DX Z (ip), vehicle: saline): 116 % of control; T/C (endpoint: mean survival time, dose: 22.0 mg/kg/injection, schedule: Q01DX015 (ip), vehicle: saline): 112 % of control; T/C (endpoint: mean survival time, dose: 25.0 mg/kg/injection, schedule: Q01DX Z (ip), vehicle: saline): 121 % of control; T/C (endpoint: mean survival time, dose: 28.0 mg/kg/injection, schedule: Q01DX001 (ip), vehicle: saline): 104 % of control and 118 % of control; T/C (endpoint: mean survival time, dose: 33.5 mg/kg/injection, schedule: Q01DX015 (ip), vehicle: saline): 123 % of control; T/C (endpoint: mean survival time, dose: 39.0 mg/kg/injection, schedule: Q01DX009 (sc), vehicle: saline): 151 % of control; T/C (endpoint: mean survival time, dose: 50.0 mg/kg/injection, schedule: Q01DX001 (ip), vehicle: DMSO): 111 % of control and 119 % of control and 121 % of control; T/C (endpoint: mean survival time, dose: 50.0 mg/kg/injection, schedule: Q01DX001 (ip), vehicle: Klucel (hydroxypropylcellulose) (HPC)): 119 % of control and 121 % of control; T/C (endpoint: mean survival time, dose: 50.0 mg/kg/injection, schedule: Q01DX001 (ip), vehicle: water): 111 % of control; T/C (endpoint: mean survival time, dose: 50.0 mg/kg/injection, schedule: Q08DX002 (ip), vehicle: saline): 115 % of control; T/C (endpoint: mean survival time, dose: 59.0 mg/kg/injection, schedule: Q01DX001 (ip), vehicle: saline): 117 % of control; T/C (endpoint: mean survival time, dose: 65.0 mg/kg/injection, schedule: Q01DX009 (sc), vehicle: saline): 151 % of control; T/C (endpoint: mean survival time, dose: 100.0 mg/kg/injection, schedule: Q01DX001 (ip), vehicle: water): 112 % of control; T/C (endpoint: mean survival time, dose: 100.0 mg/kg/injection, schedule: Q01DX Z (ip), vehicle: saline): 110 % of control; T/C (endpoint: mean survival time, dose: 100.0 mg/kg/injection, schedule: Q08DX002 (ip), vehicle: saline): 117 % of control; T/C (endpoint: mean survival time, dose: 108.0 mg/kg/injection, schedule: Q01DX009 (sc), vehicle: saline): 110 % of control; T/C (endpoint: mean survival time, dose: 118.0 mg/kg/injection, schedule: Q01DX001 (ip), vehicle: saline): 158 % of control; T/C (endpoint: mean survival time, dose: 200.0 mg/kg/injection, schedule: Q01DX001 (ip), vehicle: DMSO): 110 % of control; T/C (endpoint: mean survival time, dose: 200.0 mg/kg/injection, schedule: Q01DX001 (ip), vehicle: Klucel (hydroxypropylcellulose) (HPC)): 119 % of control; T/C (endpoint: mean survival time, dose: 200.0 mg/kg/injection, schedule: Q01DX001 (ip), vehicle: water): 119 % of control; T/C (endpoint: mean survival time, dose: 230.0 mg/kg/injection, schedule: Q01DX001 (ip), vehicle: saline): 157 % of control; T/C (endpoint: mean survival time, dose: 234.0 mg/kg/injection, schedule: Q01DX001 (ip), vehicle: saline): 168 % of control; T/C (endpoint: mean survival time, dose: 300.0 mg/kg/injection, schedule: Q01DX001 (ip), vehicle: saline): 114 % of control; T/C (endpoint: mean survival time, dose: 400.0 mg/kg/injection, schedule: Q08DX002 (ip), vehicle: saline): 102 % of control; T/C (endpoint: mean survival time, dose: 468.0 mg/kg/injection, schedule: Q01DX001 (ip), vehicle: saline): 152 % of control and 172 % of control; T/C (endpoint: mean survival time, dose: 500.0 mg/kg/injection, schedule: Q01DX001 (ip), vehicle: saline): 106 % of control; T/C (endpoint: mean survival time, dose: 560.0 mg/kg/injection, schedule: Q01DX001 (ip), vehicle: saline): 151 % of control; T/C (endpoint: median survival time, dose: 1000.0 mg/kg/injection, schedule: Q01DX001 (oral), vehicle: saline): 119 % of control; T/C (endpoint: median survival time, dose: 2000.0 mg/kg/injection, schedule: Q01DX001 (oral), vehicle: saline): 516 % of control; T/C (endpoint: median survival time, dose: 8000.0 mg/kg/injection, schedule: Q01DX001 (oral), vehicle: saline): 45 % of control; T/C (endpoint: median survival time, dose: 16000.0 mg/kg/injection, schedule: Q01DX001 (oral), vehicle: saline): 43 % of control

Q: Which results are given for CS(=O)(=O)OCCCCOS(C)(=O)=O?
A: T/C (endpoint: mean survival time, dose: 27.0 mg/kg/injection, schedule: Q01DX001 (ip), vehicle: carboxymethylcellulose (CMC)): 95 % of control; T/C (endpoint: mean survival time, dose: 41.0 mg/kg/injection, schedule: Q01DX001 (ip), vehicle: carboxymethylcellulose (CMC)): 93 % of control; T/C (endpoint: mean survival time, dose: 61.0 mg/kg/injection, schedule: Q01DX001 (ip), vehicle: carboxymethylcellulose (CMC)): 94 % of control

Q: For O=NN(CCCl)C(=O)NC1CCCCCCCCCCC1, which T/C (endpoint: mean survival time, dose: 298.0 mg/kg/injection, schedule: Q01DX001 (ip), vehicle: other) is on record?
A: 103 % of control

Q: And the T/C (endpoint: mean survival time, dose: 550.0 mg/kg/injection, schedule: Q01DX001 (ip), vehicle: other)?
A: 124 % of control

Q: What about the T/C (endpoint: mean survival time, dose: 596.0 mg/kg/injection, schedule: Q01DX001 (ip), vehicle: other) of the same compound?
A: 108 % of control

Q: And the T/C (endpoint: mean survival time, dose: 1250.0 mg/kg/injection, schedule: Q01DX001 (ip), vehicle: other)?
A: 159 % of control and 160 % of control

Q: What about the T/C (endpoint: mean survival time, dose: 1875.0 mg/kg/injection, schedule: Q01DX001 (ip), vehicle: other) of the same compound?
A: 123 % of control

Q: What about the T/C (endpoint: mean survival time, dose: 2384.0 mg/kg/injection, schedule: Q01DX001 (ip), vehicle: other) of the same compound?
A: 110 % of control

Q: C[C@H](N)C(=O)N[C@@H]1[C@H]2C(=C(O)C[C@@H](O)[C@@H]2O)C(=O)O[C@@H]1C was tested. Which T/C (endpoint: mean survival time, dose: 125.0 mg/kg/injection, schedule: Q01DX Z (ip), vehicle: saline) did it give?
A: 97 % of control

Q: What about the T/C (endpoint: mean survival time, dose: 211.0 mg/kg/injection, schedule: Q01DX015 (ip), vehicle: saline) of the same compound?
A: 103 % of control

Q: And the T/C (endpoint: mean survival time, dose: 250.0 mg/kg/injection, schedule: Q01DX Z (ip), vehicle: saline)?
A: 107 % of control

Q: And the T/C (endpoint: mean survival time, dose: 320.0 mg/kg/injection, schedule: Q01DX015 (ip), vehicle: saline)?
A: 103 % of control

Q: What about the T/C (endpoint: mean survival time, dose: 480.0 mg/kg/injection, schedule: Q01DX015 (ip), vehicle: saline) of the same compound?
A: 102 % of control

Q: And the T/C (endpoint: mean survival time, dose: 500.0 mg/kg/injection, schedule: Q01DX Z (ip), vehicle: saline)?
A: 109 % of control

Q: What about the T/C (endpoint: mean survival time, dose: 720.0 mg/kg/injection, schedule: Q01DX015 (ip), vehicle: saline) of the same compound?
A: 103 % of control

Q: What about the T/C (endpoint: mean survival time, dose: 750.0 mg/kg/injection, schedule: Q01DX Z (ip), vehicle: saline) of the same compound?
A: 107 % of control

Q: What about the T/C (endpoint: mean survival time, dose: 1000.0 mg/kg/injection, schedule: Q01DX Z (ip), vehicle: saline) of the same compound?
A: 106 % of control

Q: And the T/C (endpoint: mean survival time, dose: 1080.0 mg/kg/injection, schedule: Q01DX015 (ip), vehicle: saline)?
A: 105 % of control

Q: What about the T/C (endpoint: mean survival time, dose: 1500.0 mg/kg/injection, schedule: Q01DX Z (ip), vehicle: saline) of the same compound?
A: 106 % of control

Q: And the T/C (endpoint: mean survival time, dose: 2024.0 mg/kg/injection, schedule: Q01DX001 (ip), vehicle: saline)?
A: 109 % of control

Q: And the T/C (endpoint: mean survival time, dose: 3082.0 mg/kg/injection, schedule: Q01DX001 (ip), vehicle: saline)?
A: 105 % of control

Q: For CN(C)NCCC#N, which T/C (endpoint: mean survival time, dose: 27.0 mg/kg/injection, schedule: Q01DX Z (ip), vehicle: saline) is on record?
A: 105 % of control

Q: What about the T/C (endpoint: mean survival time, dose: 40.0 mg/kg/injection, schedule: Q01DX Z (ip), vehicle: saline) of the same compound?
A: 110 % of control

Q: What about the T/C (endpoint: mean survival time, dose: 60.0 mg/kg/injection, schedule: Q01DX Z (ip), vehicle: saline) of the same compound?
A: 108 % of control

Q: And the T/C (endpoint: mean survival time, dose: 90.0 mg/kg/injection, schedule: Q01DX Z (ip), vehicle: saline)?
A: 109 % of control

Q: CCCCC(=O)N(c1ccc(Nc2c3ccccc3nc3cc([N+](=O)[O-])ccc23)cc1)S(C)(=O)=O was tested. Which T/C (endpoint: mean survival time, dose: 3.18 mg/kg/injection, schedule: Q01DX009 (ip), vehicle: saline) did it give?
A: 96 % of control

Q: And the T/C (endpoint: mean survival time, dose: 3.18 mg/kg/injection, schedule: Q01DX009 (sc), vehicle: saline)?
A: 104 % of control

Q: And the T/C (endpoint: mean survival time, dose: 6.25 mg/kg/injection, schedule: Q01DX009 (ip), vehicle: saline)?
A: 99 % of control

Q: What about the T/C (endpoint: mean survival time, dose: 6.25 mg/kg/injection, schedule: Q01DX009 (sc), vehicle: saline) of the same compound?
A: 105 % of control

Q: And the T/C (endpoint: mean survival time, dose: 12.5 mg/kg/injection, schedule: Q01DX009 (ip), vehicle: saline)?
A: 101 % of control

Q: And the T/C (endpoint: mean survival time, dose: 12.5 mg/kg/injection, schedule: Q01DX009 (sc), vehicle: saline)?
A: 103 % of control

Q: What about the T/C (endpoint: mean survival time, dose: 25.0 mg/kg/injection, schedule: Q01DX009 (ip), vehicle: saline) of the same compound?
A: 97 % of control

Q: What about the T/C (endpoint: mean survival time, dose: 25.0 mg/kg/injection, schedule: Q01DX009 (sc), vehicle: saline) of the same compound?
A: 102 % of control

Q: With O=NN(CCCl)C(=O)N[C@H]1CCC[C@@H](O)C1 as the compound, how does the T/C (endpoint: mean survival time, dose: 12.0 mg/kg/injection, schedule: Q01DX001 (ip), vehicle: saline with Tween-80) read?
A: 124 % of control

Q: What about the T/C (endpoint: mean survival time, dose: 18.0 mg/kg/injection, schedule: Q01DX001 (ip), vehicle: saline with Tween-80) of the same compound?
A: 164 % of control

Q: And the T/C (endpoint: mean survival time, dose: 26.0 mg/kg/injection, schedule: Q01DX001 (ip), vehicle: saline with Tween-80)?
A: 420 % of control

Q: What about the T/C (endpoint: mean survival time, dose: 40.0 mg/kg/injection, schedule: Q01DX001 (ip), vehicle: saline with Tween-80) of the same compound?
A: 452 % of control

Q: What about the T/C (endpoint: mean survival time, dose: 60.0 mg/kg/injection, schedule: Q01DX001 (ip), vehicle: saline with Tween-80) of the same compound?
A: 303 % of control

Q: What about the T/C (endpoint: mean survival time, dose: 90.0 mg/kg/injection, schedule: Q01DX001 (ip), vehicle: saline with Tween-80) of the same compound?
A: 90 % of control

Q: Which results are given for C[C@H](CN1CC(=O)NC(=O)C1)N1CC(=O)NC(=O)C1?
A: T/C (endpoint: median survival time, dose: 8.0 mg/kg/injection, schedule: Q01DX009 (ip), vehicle: water): 107 % of control; T/C (endpoint: median survival time, dose: 16.0 mg/kg/injection, schedule: Q01DX009 (ip), vehicle: water): 115 % of control and 116 % of control; T/C (endpoint: median survival time, dose: 32.0 mg/kg/injection, schedule: Q01DX009 (ip), vehicle: water): 124 % of control; T/C (endpoint: median survival time, dose: 64.0 mg/kg/injection, schedule: Q01DX009 (ip), vehicle: water): 123 % of control; T/C (endpoint: median survival time, dose: 256.0 mg/kg/injection, schedule: Q01DX009 (ip), vehicle: water): 109 % of control and 95 % of control

Q: Which T/C (endpoint: mean survival time, dose: 43.0 mg/kg/injection, schedule: Q01DX001 (ip), vehicle: saline) does the source give for N=[N+]=CC(=O)OCC(N)C(=O)O (stereo not given) here?
A: 104 % of control

Q: And the T/C (endpoint: mean survival time, dose: 66.0 mg/kg/injection, schedule: Q01DX001 (ip), vehicle: saline)?
A: 101 % of control

Q: CN(N=O)C(=O)NCCCNC(=O)N(C)N=O was tested. Which T/C (endpoint: mean survival time, dose: 150.0 mg/kg/injection, schedule: Q01DX001 (ip), vehicle: carboxymethylcellulose (CMC)) did it give?
A: 108 % of control

Q: And the T/C (endpoint: mean survival time, dose: 300.0 mg/kg/injection, schedule: Q01DX001 (ip), vehicle: carboxymethylcellulose (CMC))?
A: 119 % of control
